Entries after “also recorded” stand apart in the source; their conditions may differ.
Experiments:
[1] = test system: Cy3-labeled goat anti-mouse immunoglobulin (IgG); test: Peptide array of C1q subunit 15-mers probed with Cy3-labeled immunoglobulin; assay type: binding; conditions: peptide spots on glass array, 4° C., 12 hours, background fluorescence intensity is 2.6
Source text: The amino acid sequences of the A, B, and C subunit chains of human C1q, are shown in SEQ ID NOs: 17 to 19, and the nucleotide sequences in SEQ ID NOs: 20 to 22. Based on each of the amino acid sequences, sequences having 15 amino acids (residues) from each subunit and shifted at intervals of three amino acids, were synthesized on a glass array as synthetic peptides (Peptide Nos. 1 to […], and 193 to 270 for the A, B, and C chains, respectively). The synthesis of each peptide was carried out at a specific location on the array, so as to prepare a peptide array which included the synthetic peptides covering the entire amino acid sequences of the subunits of C1q. The preparation of the array was outsourced to JPT Peptide Technologies GmbH.
To the peptide array was applied 330 μl of an Cy3-labeled goat anti-mouse immunoglobulin (IgG) (1 mg/ml; Zymed Laboratories) diluted 1000-fold with PBS (10 mM phosphate buffer, pH 7.0, 0.1 M NaCl), and the array was sealed and then incubated at 4° C. for 12 hours. After that, the array was washed once with methanol and then 5 times with Milli-Q water for 5 minutes each. The array slide was centrifuged and dried, and scanned with a fluorescence scanner (Agilent DNA microarray scanner; Agilent Technologies), so that fluorescence intensity was quantified at the respective peptide spots on the array using a software (Feature Extraction software; Agilent Technologies). Several spots displaying strong fluorescence intensities were detected. […] Note that in the description, the amino acids are denoted by the one-letter code known in the art.

[2] = test system: type III allergic (Arthus) reaction-induced rats; test: Immune-complex disease suppression in type III allergic (Arthus) reaction-induced rats, Part 1; assay type: in vivo; conditions: intraperitoneal administration, 10 or 100 mg/kg
Method: Using sixty-four 7-week-old male Slc:Wistar rats, examinations were made on peptides R1, R2, and R5, in two series of examinations, each using a different method of administration (intraperitoneal administration and tail vein administration). Acclimation was carried out by giving normal solid chow CRF-1 for a period of 9 days or longer. The back of the animals was shaved on the day prior to administration, and a mixed solution of OVA and Evans blue dye was administered into the tail vein on the day of administration. Each peptide solution was administered intraperitoneally or into the tail vein 30 minutes or 50 minutes after the administration of the mixed solution of OVA and Evans blue dye, respectively. For intracutaneous administration of an anti-OVA solution, […] was intracutaneously administered in the back of animals at a dose of 0.1 ml/site 30 minutes or 10 minutes after the administration of the tested substance in the case of intraperitoneal or intravenous administration, respectively, so as to generate a local Arthus reaction. After the reaction was allowed to be generated for 4 hours, the animals were euthanized, the blood was removed thoroughly, and then the dorsal skin was exfoliated. The Arthus reaction sites on the exfoliated skin were punched out, and the Evans blue dye was extracted from the punched skin overnight. The amount of dye leakage was quantified by measuring absorbance for the Evans blue dye with a spectrophotometer and using a calibration curve (see, H. Okamoto, Y. Iwahisa, and M. Terasawa, “Suppression of the Arthus reaction by Y-24180, a potent and specific antagonist of platelet-activating factor”, Agents Actions, 35:149-158 (1992), for experimental procedures used in Example 4).
A predetermined amount of each peptide (peptides R1, R2, and R5) was dissolved in physiological saline to make a 20 mg/ml solution. A 2 mg/ml solution was prepared by diluting the 20 mg/ml solution 10-fold with physiological saline. A 5 mg/ml solution was prepared by dissolving each peptide in a predetermined amount in physiological saline to make a prepared solution.
A mixed solution of OVA and Evans blue dye was administered into the tail vein at a dose of 2 ml/kg. Each peptide solution was administered intraperitoneally or into the tail vein 30 minutes or 50 minutes after the administration of the mixed solution of OVA and Evans blue dye, respectively. For intracutaneous administration of an anti-OVA solution, […] was intracutaneously administered in the back of animals at a dose of 0.1 mL/site 30 minutes or 10 minutes after the administration of the tested substance in the case of intraperitoneal or intravenous administration, respectively, so as to generate a local Arthus reaction. Intracutaneous administration was conducted at 2 sites for PBS and at 2 sites for the anti-OVA solution per animal. After the reaction was allowed to be generated for 4 hours, the animals were euthanized by decapitation under ether anesthesia, the blood was removed thoroughly, and then the dorsal skin was exfoliated. The Arthus reaction sites on the exfoliated skin were punched out and subjected to dye extraction.
Several cuttings were made in the skin strips that were punched out with a punch. […] The amount of dye leakage was calculated from a calibration curve of known amounts of the dye.
The mean value (mean)±standard deviation (SD) for each group was calculated with body-weight measurements and amounts of dye leakage. […]

STGKFTCKVPGLYYF (Immunoglobulin binding peptide) [R5]
Fluorescence intensity [1]: 65,311
effect of immune-complex disease suppression (dye leakage) [2]: clear and satisfactory effects of immune-complex disease suppression; also recorded: suppressed

Reference: patent US20110306554A1, “PEPTIDE CAPABLE OF BINDING TO IMMUNOGLOBULIN” (priority 2009, published 2011)
